Legend:
RAC1 [1] = molecular target: T1, RAC1 (Mus musculus, UniProt P63001); test: RAC-GTP pull-down assay, EGF-stimulated NIH/3T3 fibroblasts; assay type: cell-based; conditions: 10^-5 M
T1 construct: endogenous in cells; host or cells: NIH/3T3 fibroblasts (ATCC CRL-1658), EGF-stimulated
Method: Figure 2 Identification of a new RAC1 inhibitor (A) Effect of A41 and NSC23766 on ruffle formation (white arrows) induced by EGF (10 ng/mL) in NIH 3T3 cells in serum-free culture medium (CTL). Inhibitors were added at indicated concentration 1 h prior to EGF stimulation. To assess cytoskeleton organization, cells were incubated with Alexa Fluor 488 phalloidin to visualize F-actin. Results shown are representative of 3 independent experiments. Corresponding concentration-response curves have been established by counting the percentages of cells with ruffles (scale bars: 10 μm). (B) Immunoblot analysis and associated quantification of RAC-GTP level and total RAC expression in NIH 3T3 cells stimulated by EGF (10 ng/mL, 5 min) and pre-incubated or not (−) with NSC23766, A41, or A415 at 10^−5 M for 1 h (∗∗∗p < 0.001 vs. controls without EGF stimulation, ^###p < 0.001 vs. controls with EGF stimulation) (N > 3). (C) Representative surface plasmon resonance (SPR) sensograms of binding of immobilized RAC1 with increasing concentrations of A41 with or without EDTA (20 mM) (N > 3). (D) Representative in vitro nucleotide exchange catalyzed by the DH-PH of TIAM (10 nM) measured by the binding of fluorescent mant-GTP (1 μM) to RAC1 (0.5 μM, preloaded with GDP) in the presence of indicated concentrations of A41 (out of N = 6). Dotted lines correspond to the experimental curves, and continuous lines represent the fit of experimental points. (E) Kobs and Kmax were determined in each condition (N = 6). (F) Predicted binding modes of A4 to the NSC23766-binding site (left) or the GDP-binding pocket of RAC1 (right). In the NSC23766-binding site of RAC1, the compound A4 (carbon atoms in blue) makes 2 hydrogen bonds (green dotted line) with Ser71 (S71) and 10 hydrophobic interactions (pink dotted line) with Ala3 (A3), Lys5 (K5), Val36 (V36), Trp56 (W56), Tyr64 (Y64), and Leu67 (L67) leading to a docking score of −6.03 kcal/mol. The GDP molecule is shown with fine line. The P loop is shown in yellow, the switch 1 in orange, and the switch 2 in green. […]
Pull-down assay using GST-PBD fusion proteins were performed on NIH-3T3 lysates to assess RAC1 activity as previously described.[63] The precipitated active RAC was subjected to SDS-PAGE and detected by immunoblot with anti-RAC1 antibody (BD biosciences) (dilution 1/1000). […]
(§1) screening molecules (10^-5 M) on NIH/3T3 cell adhesion (xCELLingence Real-time cellanalysis, Agilent), migration (CYTOO Mobility plates) and proliferation (xCELLingence Real-time cell analysis, Agilent) .The level of RAC activation is determinedby the detection of RAC-GTP (pull-down assay) in NIH/3T3 cell treated with EGF (10 ng/mL) and the differentmolecules and normalize to the level of RAC activity measuredin the presenceof the reference RAC inhibitor EHT1864.

NIH/3T3 cell adhesion = test: Cell adhesion assay (xCELLigence impedance); assay type: cell-based; conditions: 10^-5 M
Method: NIH3T3cells (10000/well) were seeded in a 96 well plate microtiter xCELLigence assay plate (E-Plate) (ACEA Biosciences Inc.) and placed on the Real-time xCELLigence Cell Analyzer (Roche Applied Science) platform at 37°C to measure the “cell index” every 5 min for a period of 6 h. The cell index unit is defined as (Rn − Rb)/15. Rn is the cell electrode impedance of the well when it contains cells. Rb is the background impedance of the well with the media alone.
as §1, with “Supplementary Fig. 3: Example of one pharmacophore model used for virtual screening. (a) The pharmacophore model shown was created based on RAC1 (grey) and NSC23766 (orange) interaction. […] (b) Impact of different screening” for “screening”
(§2) Supplementary Fig. 4: A41 inhibits RAC-dependent cell functions. (a) Representative records of single NIH/3T3 cell migration on micropatterned fibronectin lines (CYTOO Mobility plates) in the absence (Control)and presenceA41 at 10^-5 M (left panel) and corresponding quantification of migration speed (right panel) (scale bar: 20µm). […] (b) Typical curves showing the cell index representing the adhesion of NIH/3T3 fibroblast (xCELLingence Real-time cell analysis, Agilent) under control condition (Control) and pre-treated with 10 µM A41 or NSC23766 (left panel) and corresponding quantification of cell adhesion speed (right panel). […]

NIH/3T3 cell migration = test: 1D cell migration (CYTOO plates); assay type: cell-based; conditions: 10^-5 M
Method: NIH3T3cells (1000/well) were seeded in a 96 well plate with […] fibronectin stripes (CytooPlates Motility, CYTOO) in medium with 1% SVF and allowed to spread for 4 h before capturing time-lapse images for 24 h (image/10 min) on a Widefield Leica DMI 6000B drove with Metamorph software. Cells speed was measured with ImageJ software.
Supplementary Fig. 3: Example of one pharmacophore model used for virtual screening. (a) The pharmacophore model shown was created based on RAC1 (grey) and NSC23766 (orange) interaction. The pharmacophore model is formed by two hydrogenbond acceptor(HBA)features,one orientedtowardsthe hydroxylgroup of Ser71 (S71) and the other towards the amine group of Gln74 (Q74), one hydrogen bond donor (HBD) feature pointed to the oxygenatom of Leu70 (L70) and two hydrophobic features (HY) located on certain carbon atoms of NSC23766 and facing residues Val36 (V36), Ala59 (A59), Tyr64 (Y64) and Leu67 (L67). The spheres correspond to locationconstraint. […] (b) Impact of different screening molecules (10^-5 M) on NIH/3T3 cell adhesion (xCELLingence Real-time cellanalysis, Agilent), migration (CYTOO Mobility plates) and proliferation (xCELLingence Real-time cell analysis, Agilent) .The level of RAC activation is determinedby the detection of RAC-GTP (pull-down assay) in NIH/3T3 cell treated with EGF (10 ng/mL) and the differentmolecules and normalize to the level of RAC activity measuredin the presenceof the reference RAC inhibitor EHT1864.
as §2

[2] = tested on: NIH/3T3 cell proliferation; test: Cell proliferation (xCELLigence); assay type: cell-based; conditions: 10^-5 M
From the text: Supplementary Fig. 3: Example of one pharmacophore model used for virtual screening. (a) The pharmacophore model shown was created based on RAC1 (grey) and NSC23766 (orange) interaction. The pharmacophore model is formed by two hydrogenbond acceptor(HBA)features,one orientedtowardsthe hydroxylgroup of Ser71 (S71) and the other towards the amine group of Gln74 (Q74), one hydrogen bond donor (HBD) feature pointed to the oxygenatom of Leu70 (L70) and two hydrophobic features (HY) located on certain carbon atoms of NSC23766 and facing residues Val36 (V36), Ala59 (A59), Tyr64 (Y64) and Leu67 (L67). The spheres correspond to locationconstraint. The pharmacophoremodel was completedby thirteen exclusion spheres centered on the main residues of RAC1 defining the binding site. The P loop, the switch 1 and the switch 2 are shown in yellow, orange and green respectively. (b) Impact of different screening molecules (10^-5 M) on NIH/3T3 cell adhesion (xCELLingence Real-time cellanalysis, Agilent), migration (CYTOO Mobility plates) and proliferation (xCELLingence Real-time cell analysis, Agilent) .The level of RAC activation is determinedby the detection of RAC-GTP (pull-down assay) in NIH/3T3 cell treated with EGF (10 ng/mL) and the differentmolecules and normalize to the level of RAC activity measuredin the presenceof the reference RAC inhibitor EHT1864.

[3] = tested on: RAC1-GTP levels in MDA-MB-468 Luc cells; test: RAC-GTP immunofluorescence; assay type: cell-based; conditions: 10^-5 M, 1 h
Method: Luciferase (Luc, green) was used to detect the cells. […] (C) Quantification of colony number of indicated cancer cell lines in the presence of A41 (10 μM) expressed as the percentage of control in the absence of A41. […] (D) Immunoblot analysis and corresponding quantification of AKT and P44/42 expression and phosphorylation (pAKT, p44/42) in MDA-MB-468 Luc cells in the absence (−) and presence of NSC23766 or A41 (1 h at 10^−5 M). […] (E) 3D invasion assay of MDA-MB-468 Luc and cancer-associated fibroblasts (CAFs) and corresponding quantification (scale bars: 200 μm).
After indicated treatments, cells were fixed with 4% paraformaldehyde and permeabilized in PBS 0.5% Triton X-100. To assess RAC1 activity, cells were then incubated with RAC-GTP antibody (26903, NewEast Biosciences, King of Prussia, Pa) (dilution 1/500) overnight at room temperature, followed by secondary Alexa 568-labeled anti-mouse antibody (dilution 1/1000). Cancer cells were detected with firefly luciferase antibody (ab21176, Abcam) (dilution 1/500) overnight at room temperature, followed by secondary Alexa 488-labeled anti-rabbit antibody (dilution 1/1000). To assess cytoskeleton organization, cells were incubated with Alexa Fluor 488 phalloidin (A12379, Invitrogen) to visualize F-actin. After staining, cells were mounted in Prolong gold antifade reagent with DAPI and images were captured by a fluorescence microscope.

RAC1 [4] = molecular target: RAC1 (Homo sapiens, UniProt P63000); test: Nucleotide exchange kinetics (mant-GTP/mant-GDP fluorescence); assay type: biochemical; design: Full-length RAC1 carrying a 6xHis tag in C-terminus was purified as previously described; 6xHis (C); made in house
Method: Figure 2 Identification of a new RAC1 inhibitor (A) Effect of A41 and NSC23766 on ruffle formation (white arrows) induced by EGF (10 ng/mL) in NIH 3T3 cells in serum-free culture medium (CTL). Inhibitors were added at indicated concentration 1 h prior to EGF stimulation. To assess cytoskeleton organization, cells were incubated with Alexa Fluor 488 phalloidin to visualize F-actin. Results shown are representative of 3 independent experiments. Corresponding concentration-response curves have been established by counting the percentages of cells with ruffles (scale bars: 10 μm). (B) Immunoblot analysis and associated quantification of RAC-GTP level and total RAC expression in NIH 3T3 cells stimulated by EGF (10 ng/mL, 5 min) and pre-incubated or not (−) with NSC23766, A41, or A415 at 10^−5 M for 1 h (∗∗∗p < 0.001 vs. controls without EGF stimulation, ^###p < 0.001 vs. controls with EGF stimulation) (N > 3). (C) Representative surface plasmon resonance (SPR) sensograms of binding of immobilized RAC1 with increasing concentrations of A41 with or without EDTA (20 mM) (N > 3). (D) Representative in vitro nucleotide exchange catalyzed by the DH-PH of TIAM (10 nM) measured by the binding of fluorescent mant-GTP (1 μM) to RAC1 (0.5 μM, preloaded with GDP) in the presence of indicated concentrations of A41 (out of N = 6). Dotted lines correspond to the experimental curves, and continuous lines represent the fit of experimental points. (E) Kobs and Kmax were determined in each condition (N = 6). (F) Predicted binding modes of A4 to the NSC23766-binding site (left) or the GDP-binding pocket of RAC1 (right). In the NSC23766-binding site of RAC1, the compound A4 (carbon atoms in blue) makes 2 hydrogen bonds (green dotted line) with Ser71 (S71) and 10 hydrophobic interactions (pink dotted line) with Ala3 (A3), Lys5 (K5), Val36 (V36), Trp56 (W56), Tyr64 (Y64), and Leu67 (L67) leading to a docking score of −6.03 kcal/mol. The GDP molecule is shown with fine line. The P loop is shown in yellow, the switch 1 in orange, and the switch 2 in green. In the GDP-binding pocket, A4 establishes 6 hydrogen bonds with Gly15 (G15), Lys16 (K16), Cys18 (C18), and Lys116 (K116), 1 carbon hydrogen bond with Lys116, and 9 hydrophobic interactions with Cys18, Ile33 (I33), Lys116, Leu119 (L119), and Leu160 (L160), resulting in a docking score of −10.32 kcal/mol.
Figure 3 Inhibitory mechanism of A41 (A–D) RAC1 activity was monitored by the change in mant-GTP/GDP fluorescence induced by its binding to or releasing from RAC1 (A–D). GDP-bound RAC1 (0.5 μM) was incubated with TRIO (10 nM) and the indicated concentrations of mant-GTP without and with A41 (5 μM) (A–C). Mant-GDP-bound RAC1 (0.5 μM) was incubated with TRIO (10 nM) and GTP (1 μM) without and with A41 (5 μM) (D). AU: arbitrary fluorescence units. All experiments were done in triplicate. Kmax and Kmin are expressed as mean ± SEM. ∗∗p < 0.01 and ∗∗∗p < 0.001 vs. TRIO. (E) Deconvoluted mass spectra generated from crude mass spectrum analyses to evaluate RAC1 photolabeling with [N3]-A41 by LC-HRMS on native protein. (F) Representative mass spectra of both labeled and unlabeled […] peptide during LC-HRMS analysis of RAC1 photolabeling with [N3]-A41 after trypsin digestion. (G) Predicted binding mode of A41 to the GDP-binding pocket of RAC1. Compound A41 (orange) makes 4 hydrogen bonds (green dotted line) with Lys16 (K16), Cys18 (C18), and Lys116 (K116), 2 carbon hydrogen bond (light green dotted line) with Val14 (V14) and Lys116 (K116), and 7 hydrophobic interactions (pink dotted line) with Cys18 (C18), Phe28 (F28), Lys116 (K116), Ala159 (A159), and Leu160 (L160). The P loop is shown in yellow, the switch 1 in orange, and the switch 2 in green.
Full-length RAC1 carrying a 6xHis tag in C-terminus was purified as previously described.[64] Full-length RAC2, RHOG, RHOA and CDC42 were purified as previously described.[64]^,[65] […]

Row | Structure (SMILES) | Rac-GTP level (relative to EHT1864) (RAC1 [1]; EGF 10 ng/mL) | Adhesion (% inhib) (NIH/3T3 cell adhesion) | Migration (% inhib) (NIH/3T3 cell migration) | Proliferation (% ctrl) [2] | effect on RAC1 activity [3] | RAC1 activation (active GTP-bound RAC1) (RAC1 [1]; 1 h, EGF 10 ng/mL 5 min) | Inhibition of RAC1 activity (nucleotide exchange assay) (RAC1 [4])
1 | O=c1cc(CN2CCOCC2)occ1OCCCCCSc1ccnc2cc(C(F)(F)F)ccc12 [EHT1864] | 1.00 | 32% | 35% | 101% | no | – | –
2 | CCN(CC)CCCC(C)Nc1nc(C)cc(Nc2ccc3nc(C)cc(N)c3c2)n1 (centres unmarked) [NSC23766] | – | 34% | 20% | 131% | little effect | no significant effect | –
3 | COc1ccc(OC)c(NS(=O)(=O)c2ccc(NC(=O)CCSc3ccc(N=[N+]=[N-])cc3)cc2)c1 [[N3]-A41] | – | – | – | – | – | – | 46%
